Counter-ions that a name gives are not always drawn.
Assays:
[1] = system: cortical neurons cultured from wild-type mice; test: Immunoblotting analysis of various proteins in cultured cortical neurons (U18666A-induced changes); format: cell-based; conditions: for RhoA level (immunoblot) / Ubiquitin level (immunoblot) / p-4EBP1 level (immunoblot) / p-LIMK level (immunoblot) / p-Mdm2 level (immunoblot) / p-p38 level (immunoblot) / p-p53Δ level (immunoblot) / t-p38 level (immunoblot) / t-p53 level (immunoblot): DIV4 cortical neurons from wild-type mice, 5 μM U18666A, inhibitor pre-treatment 1 μM, DMSO = 100, n = 3-6
Description: (§1) Neuronal cultures. Cortical and hippocampal neurons were prepared from npc1+/+ and npc1−/− embryos at embryonic day 18 (E18); time-pregnant wild-type BALB/c or npc1+/− mice were obtained either from Charles River Laboratories (San Diego, Calif.) or from our breeding colony respectively. Neurons were cultured in NeuroBasal (GIBCO, Carlsbad, Calif.) with 10% bovine serum albumin (BSA), 2% B27, and 1% glutamine for three to four days before being used.
(§2) Treatment. For primary cultured neurons, chemicals (U18666A and inhibitors of various enzymes) were first dissolved in 10% DMSO before being diluted in cultured medium; final DMSO concentration was lower than 0.01%. For in vivo treatment, hydroxyfasudil monohydrochloride (Sigma) was dissolved in double-distilled H2O and injected subcutaneously at 10 mg/kg, twice a day from postnatal day 7 to day 28.
Immunoprecipitation and immunoblotting procedures. For immunoprecipitation, cultured cortical neurons were lysed in lysis buffer [0.05 M Tris base, 0.9% NaCl, pH 7.6, and 0.5% Triton X-100 plus Protease Inhibitors Cocktail (1:100; EMD Biosciences) and phosphatase inhibitor cocktails (1:500; Sigma)]. Lysates were centrifuged at 16,000×g for 30 min at 4° C. Supernatant were then cleared with a mixture of protein A/Gagarose beads (each 50%) for 1 h at 4 uC, and after a brief spin, pellets were discarded. A small portion of the supernatants was used as input. The reminder of the supernatant was immunoprecipitated overnight with control IgG or Tau1 antibodies. Immunoprecipitates were captured by incubation with protein A/G-agarose beads for 3 h at 4° C. After several washes, the beads were resuspended in 2×SDS sample buffer [4% sodium dodecyl sulfate (SDS), 100 mM Tris-HCl (pH 6.8), 10% b-mercaptoethanol, 20% glycerol and 0.2% bromophenol blue] and boiled for 10 min. The resulting proteins were separated by SDS-PAGE, and transferred to polyvinylidene difluoride membranes for immunoblotting using previously described protocols.
Because the p-p53Δ and p-p53 bands were very close in immunoblots and the former was the predominant band, p-p53Δ levels were used as an index of p-p53 degradation. Immunoprecipitation was used to determine whether p-p53 truncation affected its association with the microtubule-associated protein tau, a protein that is abundantly and exclusively expressed in axons. p53 labeled by either anti-p-p53 or anti-p53 antibodies was immunoprecipitated by Tau1 antibodies (FIG. 5B).
Increased levels of p-p53Δ and p-Mdm2 were quantified using the ImageJ program (National Institutes of Health, Bethesda, Md.). The quantified levels are contained in Table 1 below.

[2] = system: hippocampal neurons cultured from wild-type mice; test: Quantification of growth cone collapse in cultured neurons from wild-type mice (U18666A-induced); format: cell-based; conditions: for growth cone collapse (share of neurons): 1 μM U18666A for 18 h
Description: as §1, §2
(§3) Immunofluorescent staining. Hippocampal neurons were fixed with 4% paraformaldehyde in phosphate buffer (PB; pH 7.4) for 15 min. After washing with 1× phosphate buffer saline (PBS), cells were permeabilized with 0.05% Triton X-100 in 1×PBS for 15 min, and incubated with blocking buffer (3% BSA, 0.02% Triton X-100 in 1×PBS) for 15 min before being probed with primary antibodies. The following primary antibodies were used: anti-E6AP (1:1000), anti-phospho-p53 (1:250), anti-phospho-4EBP1 (1:1000), antiphospho-Mdm2 antibody (1:250), anti-phospho-p38 antibody (1:250), anti-RhoA antibody (1:1500). All primary antibodies were diluted in blocking buffer and incubated at 4° C. for 18 h. After six washes (6×10 min) with 1×PBS at room temperature, cells were incubated with secondary antibodies, Alexa488-anti-rabbit (1:500) or Alexa594-anti-mouse (1:500); both antibodies were diluted in blocking buffer and incubated at room temperature for one h. Cells were then washed with 1×PBS (6×10 min) and sealed with mounting medium (Vectashield; Vector Laboratories, Inc., Burlingame, Calif.) containing 49,69-diamidino-2-phenylindole (DAPI) to stain nuclei. Immunofluorescent signal was detected with a Nikon confocal microscope (Nikon TE 2000U with DEclipse C1 system; Melville, N.Y.).
(§4) Quantification of growth cone morphology and immunoreactivity. Confocal images were taken using the 60× oil-immersion objective. About 20-30 images were randomly selected from each culture dish (20 mm in diameter); at least four to six dishes from three to six independent culture preparations/experiments were used for each experimental group. Within an experiment, cultures used for different experimental groups and designed for comparison were stained simultaneously and imaged with the same acquisition parameters. Quantification was done blindly by multiple researchers. Growth cones with less than 1 filopodium were considered collapsed; 100 growth cones were-quantified for each experimental group. Image J software was used to quantify immunoreactivity intensity of p-p53 and RhoA in axons and growth cones; the “total integrated density” was used instead of “average intensity”. Briefly, individual growth cones were outlined manually and the total integrated density was measured using Image J software. For quantification of immunoreactivity in axons, a 50 μm fragment of axons from the neck of growth cones towards the cell body was selected and integrated density measured.

[3] = system: axons and growth cones of hippocampal neurons from wild-type mice; test: Immunofluorescence quantification of protein levels in axons and growth cones of wild-type hippocampal neurons; format: cell-based; conditions: for RhoA levels in axons, percentage of control vehicle-treated neurons / RhoA levels in growth cones, percentage of control vehicle-treated neurons: immunohistochemical analysis, mean±SEM, n=25-40, Mdm2 inhibitor 1 μM
Description: as §1, §2, §3, §4

hippocampal neurons = test: Filipin staining of cholesterol in cultured hippocampal neurons; format: cell-based, mice; conditions: 1 μM U18666A for 18 h
Description: Filipin staining. […] After immunostaining with anti-E6-AP and anti-p-p53 antibodies and corresponding secondary antibodies conjugated with either Alexa Fluor H 594 or Alexa Fluor H 488, neurons were washed with 1×PBS and incubated in the dark with […] filipin in 1×PBS for 2 h at room temperature. Neuronal cultures were then washed again with 1×PBS before being examined with confocal microscopy.
Because axonal growth cone collapse in hippocampal neurons from npc1−/− mice was associated with decreased levels of p-p53, over-expression of wild-type p53 was tested to determine if it could reverse growth cone collapse. In this set of experiments, the amphiphilic amine and cholesterol transport inhibitor, U18666A, was used to induce a NPC-like phenotype in hippocampal neurons cultured from wild-type mice. U18666A has been used to induce NPC-like phenotype in various cultured cells, including neurons. Treatment with 1 μM U18666A for 18 h induced growth cone collapse in about 80% of hippocampal neurons prepared from wild-type mice and transfected with an EGFP-vector or a vector containing p53 with the R175H mutation (p53-R175H), a conformational mutation that is frequently found in tumor cells that lack p53 function (FIGS. 1D and E). […]

npc1−/− mice = test: In vivo ROCK inhibition in developing npc1−/− mice, immunohistochemistry of brain sections; conditions: 10 mg/kg subcutaneously twice a day, postnatal day 7 to 28
Description: Animals. A breeding colony of Npc1″ heterozygous mice that were on a BALB/c background (Jackson Laboratory, Bar Harbor, Me.) was established in order breed wild type (npc+/+) and npc1−/− mice. The genotype of the mice was determined by employing a polymerase chain reaction (PCR)-based method as described in reference. The Institutional Animal Care and Use Committee (IACUC) of Western University of Health Sciences approved the care and experimental protocols that these examples describe. The National Institutes of Health Guide for the Care and Use of Laboratory Animals and Animal Husbandry governed the use of animals by the inventors.
as §2
Perfusion and Immunohistochemistry. Mice were perfused with freshly prepared 4% paraformaldehyde in 1×PBS. Brains were then removed and post-fixed in 4% paraformaldehyde for 16 h followed by incubation with graded sucrose solutions. Brains were sectioned into 30 μm coronal sections with a microtome. Floating sections were processed for immunostaining as described previously. Briefly, sections were incubated with rabbit anti-p-p53 (1:250) and mouse anti-pan axonal neurofilament (SMI-312, 1:500; Covance) antibodies in 5% horse serum diluted in 0.1M PB overnight at 4° C. […] Quantification of p-p53 and neurofilament immunoreactivity in fasciculated bundles in the striatum was performed by using NIH ImageJ software. […] Analyzed area consisted of 450 μm×420 μm that was taken from two sections per mouse; three different mice were used for each experimental group. Means of integrated density and areas were quantified and expressed as percentage of values from npc1+/+ mice.

[4] = reference [26]; cited from earlier work
[5] = 1 μM SB203580 pre-treatment, immunohistochemistry
[6] = wild-type cortical neurons treated with pifithrin-μ

With `C[S+]([O-])c1ccc(-c2nc(-c3ccncc3)c(-c3ccc(F)cc3)[nH]2)cc1` (stereo not shown) [SB203580] the “RhoA level (immunoblot)” value [1] was 96 ± 0, the “Ubiquitin level (immunoblot)” value [1] was 95 ± 7 and the “p-4EBP1 level (immunoblot)” value [1] was 99 ± 3. The “p-LIMK level (immunoblot)” value [1] was 100 ± 3, the “p-Mdm2 level (immunoblot)” value [1] was 92 ± 1 and the “p-p38 level (immunoblot)” value [1] was 96 ± 24. The “p-p53Δ level (immunoblot)” value [1] was 94 ± 6, the “t-p38 level (immunoblot)” value [1] was 99 ± 5 and the “t-p53 level (immunoblot)” value [1] was 107 ± 2. For the same compound, the “effect on U18666A-induced growth cone collapse” value ([2]; preincubation with 1 μM SB203580 for 2 h before U18666A) was “significantly reduced”, the “effect on U18666A-induced RhoA increase in axons and growth cones” value [3, 5] was “blocking effects” and the “effect on U18666A-induced p-p53 truncation in axons and growth cones” value [3, 5] was “blocking effects”.

For `CC[C@H]1CN2CCc3cc(OC)c(OC)cc3[C@@H]2C[C@@H]1C[C@H]1NCCc2cc(OC)c(OC)cc21` [emetine], the “effect on U18666A-induced phosphorylation of LIMK” value ([1]; emetine pretreatment) was “significantly reduced”, the “effect on pifithrin-μ-induced increase in RhoA and p-LIMK” value ([1]; emetine pretreatment) was “blocked” and the “effect on U18666A-induced changes in levels of p-Mdm2, p-p38 and p-p53Δ” value ([1]; emetine treatment) was “did not affect”. The “effect on U18666A-induced increase in RhoA levels” value ([1]; pre-treatment with emetine) was “significantly reduced” and the “effect on U18666A-induced growth cone collapse” value ([2]; emetine pretreatment, FIG. 15C legend: cortical neurons, n=100 growth cones) was “significantly reduced”.

With `Cc1cncc2cccc(S(=O)(=O)N3CCCNC[C@@H]3C)c12.Cl.Cl` [H 1152, (S)-(+)-2-Methyl-1-[(4-methyl-5-isoquinolinyl)sulfonyl]-hexahydro-1H-1,4-diazepine dihydrochloride] the “effect on U18666A-induced growth cone collapse” value ([2]; pre-treatment with 100 nM H 1152 for 3 h, then 5 μM U18666A for 2 min) was “blocked” and the “effect on U18666A-induced decrease in p-p53 immunoreactivity” value ([3]; 100 nM H 1152 for 3 h, then 5 μM U18666A 2 min) was “blocked”.

For `NS(=O)(=O)C#Cc1ccccc1` [pifithrin-μ], the “levels of RhoA and p-LIMK (immunoblot)” value [1, 6] was “rapid increase” and the “levels of p-4EBP1” value [1, 6] was “increased”.

For `Bc1ccc(C(=O)/C=C/c2ccc(I)cc2)cc1` [Mdm2-In, trans-4-Iodo, 49-boranyl-chalcone], the “RhoA level (immunoblot)” value [1] was 105 ± 1, the “Ubiquitin level (immunoblot)” value [1] was 102 ± 5 and the “p-4EBP1 level (immunoblot)” value [1] was 104 ± 2. The “p-LIMK level (immunoblot)” value [1] was 117 ± 6, the “p-Mdm2 level (immunoblot)” value [1] was 100 ± 4 and the “p-p38 level (immunoblot)” value [1] was 108 ± 17. The “p-p53Δ level (immunoblot)” value [1] was 106 ± 2, the “t-p38 level (immunoblot)” value [1] was 104 ± 0 and the “t-p53 level (immunoblot)” value [1] was 104 ± 1. For the same compound, the “effect on U18666A-induced growth cone collapse” value ([2]; pretreatment with 1 μM Mdm2-in, n=100 growth cones) was “significantly reduced”, the “effect on U18666A-induced decrease in p-p53 levels in axons and growth cones” value ([3]; Mdm2 inhibitor pre-treatment (1 μM), n=25-40 neurons) was “significantly reduced” and the “RhoA levels in axons, percentage of control vehicle-treated neurons” value [3] was 102±15%. For the same compound, the “RhoA levels in growth cones, percentage of control vehicle-treated neurons” value [3] was 136±20%.

With `CCN(CC)CCO[C@H]1CC[C@@]2(C)C(=CC[C@@H]3[C@@H]2CC[C@]2(C)C(=O)CC[C@@H]32)C1` [U18666A] the “p-p53 levels (immunoblot)” value ([1]; 5 μM U18666A for 2 min, DIV4 wild-type cortical neurons) was “rapid decrease”, the “RhoA level (immunoblot)” value [1] was 418 and the “Ubiquitin level (immunoblot)” value [1] was 435. For the same compound, the “p-4EBP1 level (immunoblot)” value [1] was 389, the “p-LIMK level (immunoblot)” value [1] was 411 and the “p-Mdm2 level (immunoblot)” value [1] was 549. The “p-p38 level (immunoblot)” value [1] was 493, the “p-p53Δ level (immunoblot)” value [1] was 775 and the “t-p38 level (immunoblot)” value [1] was 107. The “t-p53 level (immunoblot)” value [1] was 94, the “growth cone collapse (share of neurons)” value ([2]; neurons transfected with EGFP-vector or p53-R175H) was “about 80%” and the “growth cone collapse (share of neurons)” value ([2]; neurons transfected with wild-type p53) was 20%. For the same compound, the growth cone collapse ([2]; 5 μM U18666A for 2 min, DIV4, no inhibitor, n=100 growth cones) was 72±2%, the “levels of "mutant" p53 in axons and growth cones” value ([3]; 5 μM U18666A for 2 min, DIV4) was “markedly reduced” and the “p-4EBP1 levels in axons and growth cones” value ([3]; 5 μM U18666A for two min) was “increased”. For the same compound, the “levels of p-p38 and p-Mdm2 in axons and growth cones” value ([3]; 5 μM U18666A for two min vs vehicle-treated controls) was “increased”, the “RhoA levels in axons, percentage of control vehicle-treated neurons” value [3] was 640±56% and the “RhoA levels in growth cones, percentage of control vehicle-treated neurons” value [3] was 257±37%. The “filipin fluorescence intensity (cholesterol) in axons and collapsed growth cones” value (hippocampal neurons) was “marked decrease”.

In the case of `O=c1[nH]ccc2c(S(=O)(=O)N3CCCNCC3)cccc12` [hydroxyfasudil monohydrochloride], the SMI-312-immunopositive areas (npc1−/− mice) is reported as “significantly increased”, the “number of axonal neurofilaments (SMI-312 staining), especially corpus callosum and striatum” value (npc1−/− mice) is reported as “increased” and the “p-p53 immunoreactivity in brain sections” value (npc1−/− mice) is reported as “increased”. The blood-brain-barrier crossing [4] was “cross the blood-brain-barrier” and the ischemia-induced brain damage [4] was “reduce ischemia-induced brain damage”.
